Test results from ChEMBL document CHEMBL4229375, “Towards new antibiotics targeting bacterial transglycosylase: Synthesis of a Lipid II analog as stable transition-state mimic inhibitor” (Bioorg Med Chem Lett, 2018).

Biological target: Bacterial penicillin-binding protein (Bacteria) (UniProt P24228+P0AD68+P02918+P02919+P0AEB2+P0AD65+P08506)
Test: Inhibition of Acinetobacter baumannii PBP transglycosylase activity at 50 uM using NBD-labeled lipid 2 as substrate after 30 mins by N-acetylmuramidase enzyme coupled HPLC analysis relative to control
Format: protein assay

inhibition: 70%
Compound: CC(=O)N[C@H]1[C@H](O[C@H]2[C@H](O)[C@H](O)[C@@H](CP(=O)(O)OP(=O)(O)OC/C=C(\C)CC/C=C(/C)CC/C=C(\C)CCC=C(C)C)N[C@@H]2CO)O[C@H](CO)[C@@H](O)[C@@H]1O
